Results reported in patent US20230286973A1, “PROTEIN SECRETION INHIBITORS” (KEZAR LIFE SCIENCES, priority 2020, published 2023).

Columns and labels:
[1] = test system: IL-2-FL/Gaussia Luciferase; assay: Dox Induced IL2-FL-Gluc Assay; type: cell-based; conditions: for IC50: 24 hr Dox induction, 293FRT/TO cells, mean, read-out: 24 hr Dox Inducible IL2FLGluc 293FRT/TO: Mean IC50; for 24 hr Dox Inducible IL2FLGluc 293FRT/TO: IL2/PD1: ratio of IL2FLGluc IC50 to PD1ssGluc IC50, '<=>' given where both are I.A.
Procedure, shortened: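 Stable Flp-In 293 T-REx line, Tet-regulated IL-2 (aa 1-153)–Gaussia luciferase fusion; hygromycin/blasticidin selected. Plated day -1; compound + doxycycline added next day; 37° C, 5% CO2.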

[2] = test system: PD1-ss+10aa/Gaussia Luciferase; assay: Dox-Induced PD1-ss-Gluc Assay; type: cell-based; conditions: 24 hr Dox induction; 293FRT/TO cells; mean; read-out: 24 hr Dox Inducible PD1ssGluc 293FRT/TO: Mean IC50
Procedure, shortened: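 Flp-In 293 T-REx, stable line; Tet-regulated PD1-ss+10aa fused to Gaussia luciferase; plated day prior; cpd + doxycycline in DMSO/media; 37 °C, 5% CO2.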

[3] = Liver Microsome Stability Assay (rat); conditions: rat liver microsomes, with NADPH, 1.0 uM compound
Protocol: (§1) Stability of a compound was assessed in the presence of liver microsomes from various sources—mouse, rat, monkey and human liver microsomes. 1.0 uM compound, 0.4% DMSO in 0.1 M Potassium Phosphate with 1.0 mg/mL liver microsomes, were incubated at 37° C. with or without 1 mM NADPH. The samples were quenched at 0, and 30 minutes.

[4] = Liver Microsome Stability Assay (monkey); conditions: monkey liver microsomes, with NADPH, 1.0 uM compound
Protocol: as §1

[5] = test system: TNFα-FL/Gaussia Luciferase; assay: Dox Induced TNFα-FL-Gluc Assay; type: cell-based; conditions: for IC50: 24 hr Dox induction, 293FRT/TO cells, mean, read-out: 24 hr Dox Inducible TNFaFLGluc 293FRT/TO: Mean IC50; for 24 hr Dox Inducible TNFaFLGluc 293FRT/TO: TNF/PD1: ratio of TNFaFLGluc IC50 to PD1ssGluc IC50, '<=>' given where both are I.A.
Procedure, shortened: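 Cell line: stable Flp-In 293 T-REx, TNFα-FL(1-233)-Gaussia luciferase fusion, T-REx-inducible. Plated day -1; compounds in DMSO/media + doxycycline, 37 °C, 5% CO2. Undefined stereocentres = mixture tested.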

[6] = test system: multiple myeloma cell line NCI-H929; assay: H929 Cell Viability Assay; type: cell-based, human; conditions: Homo sapiens, NCI-H929, 48 h, NCI-H929 cells, Celltiter-Glo
Procedure, shortened: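 Cells in RPMI 1640/10% FBS; compound dilutions in DMSO/media; 48 h, 37° C, 5% CO2; CellTiter-Glo luciferase readout for viability.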

[7] = test system: HER3-ss+4aa/Gaussia Luciferase; assay: Dox-Induced Her3-ss-Gluc Assay; type: cell-based; conditions: 24 hr Dox induction; 293FRT/TO cells; mean; read-out: 24 hr Dox Inducible Her3(ss + 4)Gluc 293FRT/TO: Mean IC50
Procedure, shortened: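 Flp-In 293 T-REx cells, stable HER3-ss+4aa/Gaussia luciferase insert, hygromycin/blasticidin selected; plated day before; compound in DMSO/media + doxycycline; 37° C., 5% CO2.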

[8] = Liver Microsome Stability Assay (mouse); conditions: mouse liver microsomes, with NADPH, 1.0 uM compound
Protocol: as §1

[9] = test system: multiple myeloma cell line U266B1; assay: U266 Cell Viability Assay; type: cell-based, human; conditions: Homo sapiens, U-266, 48 h, U266B1 cells, Celltiter-Glo
Procedure, shortened: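 Luminescent ATP read-out (CellTiter-Glo) after 48 h compound exposure at 37° C., 5% CO2; cells maintained in RPMI 1640/10% FBS/2 mM glutamine/pen-strep, compounds diluted in DMSO/media.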

[10] = Liver Microsome Stability Assay (human); conditions: human liver microsomes, with NADPH, 1.0 uM compound
Protocol: as §1

Compound | IC50 [1] | 24 hr Dox Inducible IL2FLGluc 293FRT/TO: IL2/PD1 [1] | IC50 [2] | Liver Microsome Stability (Multiple Species): Rat - % Remaining after 30 min w/NADPH [3] | Liver Microsome Stability (Multiple Species): Monkey - % Remaining after 30 min w/NADPH [4] | IC50 [5] | 24 hr Dox Inducible TNFaFLGluc 293FRT/TO: TNF/PD1 [5] | EC50 [6] | IC50 [7] | Liver Microsome Stability (Multiple Species): Mouse - % Remaining after 30 min w/NADPH [8] | EC50 [9] | Liver Microsome Stability (Multiple Species): Human - % Remaining after 30 min w/NADPH [10]
CC(=O)N1CCC(O[C@@H]2C[C@H](c3csc(NC(=O)c4cccn4Cc4ccncc4)n3)N(c3ccccc3)C2)CC1 [Compound E40, N-(4-((2R,4R)-4-((1-acetylpiperidin-4-yl)oxy)-1-phenylpyrrolidin-2-yl)thiazol-2-yl)-1-(pyridin-4-ylmethyl)-1H-pyrrole-2-carboxamide] | 0.771 µM | 2.4 | 0.32 µM | 1.43% | 0.1% | 2.05 µM | 6.42 | 6.73 µM | 0.645 µM | 2.75% | > 25 µM | 0.43%
COc1ccc(O[C@H]2CCC[C@H](c3csc(NC(=O)c4cccn4Cc4ccncc4)n3)C2)nc1 [Compound E41, N-(4-((1S,3S)-3-((5-methoxypyridin-2-yl)oxy)cyclohexyl)thiazol-2-yl)-1-(pyridin-4-ylmethyl)-1H-pyrrole-2-carboxamide] | 0.538 µM | 1.8 | 0.301 µM | 0.61% | 0.34% | 1.56 µM | 5.2 | 7.74 µM | 0.57 µM | 0.41% | 14.4 µM | 0.33%
COc1ccc(O[C@@H]2CC[C@H](c3csc(NC(=O)c4cccn4Cc4ccncc4)n3)C2)nc1 [Compound E42, N-(4-((1S,3R)-3-((5-methoxypyridin-2-yl)oxy)cyclopentyl)thiazol-2-yl)-1-(pyridin-4-ylmethyl)-1H-pyrrole-2-carboxamide] | 2.59 µM | 5.5 | 0.473 µM | 0.38% | 0.26% | 8.11 µM | 17.2 | 17.3 µM | 1.12 µM | 0.18% | > 25 µM | 0.09%
O=C(Nc1nc([C@@H]2CCN(c3ccccn3)C2)cs1)c1cccn1Cc1ccncc1 [Compound E43, (R)-N-(4-(1-(pyridin-2-yl)pyrrolidin-3-yl)thiazol-2-yl)-1-(pyridin-4-ylmethyl)-1H-pyrrole-2-carboxamide] | 10.9 µM | 9.6 | 1.14 µM | 0.9% | 0.35% | 21.4 µM | 18.8 | 16.7 µM | 3.15 µM | 0.5% | 20.3 µM | 0.28%
O=C(Nc1nc([C@H]2CCN(c3ccccn3)C2)cs1)c1cccn1Cc1ccncc1 [Compound E44, (S)-N-(4-(1-(pyridin-2-yl)pyrrolidin-3-yl)thiazol-2-yl)-1-(pyridin-4-ylmethyl)-1H-pyrrole-2-carboxamide] | 2.72 µM | 6 | 0.453 µM | 0.72% | 0.59% | 11.6 µM | 25.5 | 22.9 µM | 1.32 µM | 0.24% | > 25 µM | 0.5%
O=C(Nc1nc([C@H]2CCCN(c3ccccn3)C2)cs1)c1cccn1Cc1ccncc1 [Compound E45, (S)-N-(4-(1-(pyridin-2-yl)piperidin-3-yl)thiazol-2-yl)-1-(pyridin-4-ylmethyl)-1H-pyrrole-2-carboxamide] | 2.37 µM | 4.5 | 0.531 µM | 1.2% | 0.23% | 6.03 µM | 11.4 | 17.3 µM | 1.45 µM | 2.25% | 14.3 µM | 0.19%
O=C(Nc1nc([C@H]2CCCN2c2cccnc2)cs1)c1cccn1Cc1ccncc1 [Compound E46, (R)-N-(4-(1-(pyridin-3-yl)pyrrolidin-2-yl)thiazol-2-yl)-1-(pyridin-4-ylmethyl)-1H-pyrrole-2-carboxamide] | 0.115 µM | 3.9 | 0.0291 µM | 1.85% | 0.6% | 0.529 µM | 18.1 | 3.65 µM | 0.0604 µM | 22.1% | > 25 µM | 7.36%
O=C(Nc1nc([C@@H]2CCCN(c3ccccn3)C2)cs1)c1cccn1Cc1ccncc1 [Compound E47, (R)-N-(4-(1-(pyridin-2-yl)piperidin-3-yl)thiazol-2-yl)-1-(pyridin-4-ylmethyl)-1H-pyrrole-2-carboxamide] | 1.44 µM | 2.6 | 0.547 µM | 2.13% | 5.23% | 4.06 µM | 7.43 | 10.4 µM | 1.43 µM | 0.55% | 13.9 µM | 0.57%
